Results as given in patent publication US9084812B2, “Composition useful for the prevention or reduction of the progression of prostate cancer” (SIGMA-TAU INDUSTRIE FARMACEUTICHE RIUNITE S.P.A., priority 2008, dated 2015).
Values joined by “and” are separate entries in the source; they are usually repeats but may differ in a detail not shown here. Equal values may be shown once.

Columns and labels:
PC3 cells = test: MTT colorimetric cell proliferation assay, PC3; format: cell-based, human; design: Absorbance 540 nm, single wells (N° 1-8) / Absorbance 540 nm, Mean / PC3 cell proliferation, single wells (N° 1-8) / PC3 cell proliferation, Mean: unit not given here; details: for Absorbance 540 nm, single wells (N° 1-8): lycopene 5 mmol/L, selenium 30 ng/ml, zinc 10 μg/ml; for % inhib: vs control
Protocol: (§1) For the experiments reported in the following established human prostate carcinoma cell lines LNCaP and PC3 (obtained from the American Type Culture Collection Rockville, Md.) were used. The LNCaP cells were cultured in RPMI 1640 medium (Life Technologies, Rockville, Md.), supplemented with 10% Fetal Bovine Serum (FBS) and 1% Penicillin and Streptomycin. The cells were incubated at 37 degree C. in a humidified atmosphere of 5% CO2 in air. Both sets of cell cultures were grown to 80% confluence in 10 cm tissue culture flasks and split 1:8. The cells were plated in 96 cell plates and allowed to attach and reach 60-70% confluence before being used for experimentation. […] Cells that were used as control were incubated with same amount of PBS in complete cell medium. The effects of lycopene (5 mmol/L], selenium (30 ng/ml), zinc (10 μg/ml), serenoa (10 μg/ml), and soya isoflavon (10 μg/ml) were also tested by adding them to the cell culture alone or in combination with the green tea extract and pomegranate extract. The cellular proliferation of the cells was determined using the 3-(4,5-dimethylthiazol-2-yl)-2,5-diphenyltetrazolium (MIT) colorimetric assay following 24 hours of incubation at 37° C. with or without the test agents. The MTT ([…]) was added to all the wells and incubated for a further 2 hr. The plate was than centrifuged at 500×g for 5 min at 4 degree C. The MIT solution was removed from the wells by careful aspiration and buffered DMSO (0.1 ml) was added to each of the wells and plates shaken for 15 mins. The absorbance was measured on a microplate reader at the wavelength of 540 nm. The effect of each compound alone and in combination on cell growth was assessed as the percentage of cell viability in which the untreated control cells were taken as those being completely viable and allowed to grow freely.

LNCaP cells = test: MTT colorimetric cell proliferation assay, LNCaP; format: cell-based, human; design: Absorbance 540 nm, single wells (N° 1-10) / Absorbance 540 nm, Mean / LNCaP cell proliferation, Mean: unit not given here; details: for % inhib: vs control
Protocol: as §1

[1] = Table 2, 24 hours incubation, green tea 40 μg/ml, pomegranate 40 μg/ml
[2] = Table 2, 24 hours incubation, mean of 8 wells
[3] = Table 1, 24 hours incubation, mean of 10 wells

Row | SMILES | Absorbance 540 nm, single wells (N° 1-8) (PC3 cells; [1]) | Absorbance 540 nm, Mean (PC3 cells; [2]) | % inhib (PC3 cells; Table 2, 24 hours incubation) [%] | Absorbance 540 nm, Mean (LNCaP cells; [3]) | % inhib (LNCaP cells; Table 1, 24 hours incubation) [%] | PC3 cell proliferation, single wells (N° 1-8) (PC3 cells; Table 4, 24 hours incubation, green tea 40 μg/ml, pomegranate 40 μg/ml, serenoa 10 μg/ml, soya isoflavon 10 μg/ml, L-carnitine) | PC3 cell proliferation, Mean (PC3 cells; Table 4, 24 hours incubation, mean of 8 wells) | % inhib (PC3 cells; Table 4, 24 hours incubation) [%] | LNCaP cell proliferation, Mean (LNCaP cells; Table 3, 24 hours incubation, mean of 10 wells) | % inhib (LNCaP cells; Table 3, 24 hours incubation) [%] | Absorbance 540 nm, single wells (N° 1-10) (LNCaP cells; Table 1, 24 hours incubation, green tea 40 μg/ml, pomegranate 40 μg/ml, lycopene 5 mmol/L, selenium 30 ng/ml, zinc 10 μg/ml)
1 | [Se] [D, selenium] | 309 and 341 and 345 and 286 and 292 and 313 and 321 and 374 | 323 | 12.7 | 311 | 9.8 |  |  |  |  |  | 
2 | [Zn] [E, zinc] | 355 and 322 and 395 and 344 and 312 and 321 and 339 | 342 | 7.8 | 325 | 5.7 |  |  |  |  |  | 
3 | C[N+](C)(C)C[C@H](O)CC(=O)[O-] [H, L-carnitine] |  |  |  |  |  | 366 and 341 and 387 and 320 and 378 and 392 and 385 | 369 | 2.6 | 347 | 3.3 | 
4 | CC(C)=CCC/C(C)=C/C=C/C(C)=C/C=C/C(C)=C/C=C/C=C(C)/C=C/C=C(C)/C=C/C=C(\C)CCC=C(C)C [C, lycopene] | 377 and 314 and 322 and 309 and 299 and 316 and 382 and 308 | 328 | 11.4 | 324 | 6.4 |  |  |  |  |  | 312 and 317 and 301 and 329 and 315 and 327 and 353 and 341
